Reference: patent US8952054B2, “Small molecule inhibitors of MUC1 and methods of identifying the same” (Dana-Farber Cancer Institute, Inc., priority 2010, dated 2015)

Tests used:
MUC1 = MUC1 mRNA (qRT-PCR) and MUC1-C protein (immunoblot) in MCF-7 cells; assay type: cell-based, human; conditions: for MUC1 mRNA levels: MCF-7, 75 μM, 3 d, qRT-PCR; for MUC1-C protein in the nucleus / MUC1-C protein in whole cell lysates: MCF-7, 3 days
Description: FIGS. 14A-E—Apigenin suppresses MUC1 expression in MCF-7 cells. (FIG. 14A) MCF-7 cells were treated with DMSO vehicle, 75 μM apigenin or 75 μM baicalein for 3 d. Total RNA was assayed for MUC1 mRNA levels by qRTPCR. The results (mean+SD of 3 determinations) are expressed as relative MUC1 mRNA levels as compared to that obtained in cells treated with DMSO. (FIGS. 14B-C) MCF-7 cells were treated with the indicated concentrations of apigenin and baicalein for 3 days. Nuclear (FIG. 14B) and whole cell lysates (FIG. 14C) were immunoblotted with the indicated antibodies. D. Lysates from MCF-7 cells were infected to stably express a control lentivirus and one with a MUC1 shRNA were immunoblotted with the indicated antibodies. (FIG. 14E) The indicated MCF-7 cells were treated with […] apigenin for 3 d. Viable cell number was determined by the MTS assay. The results (mean+SD of 3 determinations) are expressed as percentage of control growth in the presence of DMSO.

[1] = tested on: ZR-75-1 breast tumor xenografts; experiment: ZR-75-1 breast tumor xenografts in nude mice; assay type: in vivo, Balb-c nu/nu mice
Description: FIGS. 5A-C. MUC1/CQC peptide blocks growth of ZR-75-1 breast tumor xenografts. (FIG. 5A) Four to six week-old female Balb-c nu/nu mice were implanted with 17-β-estradiol plugs. After 24 h, ZR-75-1 breast cancer cells (imbedded in matrigel) were injected subcutaneously in the flank. When tumors were ˜150 mm3, the mice were paired matched into groups and injected intraperitoneally with PBS (vehicle control; closed squares), 50 mg/kg MUC1/AQA peptide (control peptide; open squares) or 10 mg/kg MUC1/CQC peptide (closed triangles) daily for 21 d. Another group was treated with 50 mg/kg MUC1/CQC peptide daily for 6 d (open triangles). Mice were weighed twice weekly and tumor measurements were performed every 4 d. (FIGS. 5B and 5C). On day 24 (asterisk), tumors harvested from the control group and the group treated with 50 mg/kg/d×6 d were stained with H&E (FIG. 5B) and with an antibody against MUC1 (FIG. 5C).
To determine if administration of the MUC1/CQC peptide is associated with effects on body weight, five female nude (nu/nu) mice were injected intraperitoneally (IP) once each day at a dose of 50 mg/kg. […] To assess anti-tumor activity, ZR-75-1 cells (1×10^7) were implanted subcutaneously into the flanks of nude mice. After 12 d, mice bearing tumors of approximately 150 mm^3 were treated with the MUC1/CQC peptide at doses of 10 and 50 mg/kg/d. As controls, mice were treated with vehicle alone or with the MUC1/AQA peptide. Administration of the MUC1/CQC peptide at 10 mg/kg/d×21 d slowed growth as compared to that obtained with the MUC1/AQA peptide given at 50 mg/kg/d (FIG. 5A). […] Consequently, treatment was stopped and the mice were monitored for regrowth. […] To assess in part the basis for the activity, tumors harvested from control and treated mice were examined by histopathology. […] Sections of the tumors were also stained with an antibody against MUC1.

ZR-75-1 cells = experiment: Cell cycle distribution, apoptosis and necrosis by flow cytometry, ZR-75-1; assay type: cell-based, human; conditions: ZR-75-1, 5 μM; for necrosis (propidium iodide): detectable at 72 h, more prominent at 96 h
Description: FIGS. 3A-D. MUC1/CQC peptide induces S phase arrest and necrosis. ZR-75-1 (FIGS. 2A-B) and MCF-7 (FIGS. 2C-D) cells were treated with 5 μM MUC1/CQC or MUC1/AQA for 3 and 4 d. Cells were fixed and analyzed for cell cycle distribution by flow cytometry (FIGS. 2A and 2C). The percentage of cells in G1, S and G2/M phases is included in the panels. Cells were also stained with propidium iodide and analyzed by flow cytometry for necrosis (FIGS. 2B and 2D). The percentage of necrotic cells is included in the panels.
Cells were harvested, washed with PBS, fixed with 80% ethanol, and incubated in PBS containing 40 μg/ml RNAse and 40 μg/ml propidium iodide for 30 min at 37° C. Cell cycle distribution was determined by flow cytometry. Sub-G1 DNA content was assessed by staining ethanol-fixed and citrate buffer-permeabilized cells with propidium iodide and monitoring by flow cytometry as described (Yin et al., 2007). For assessment of necrosis, cells were incubated with 1 μg/ml propidium iodide/PBS for 5 min at room temperature and then monitored by flow cytometry as described (Yin et al., 2007).

## O=c1cc(-c2ccccc2)oc2cc(O)c(O)c(O)c12 [Baicalein, 5,6,7-trihydroxyflavone, reference compound]
MUC1
  MUC1 mRNA levels: no apparent effect
  MUC1-C protein in the nucleus: not
  MUC1-C protein in whole cell lysates: not

## MUC1/AQA: control peptide in which the CQC motif was altered to AQA (SEQ ID NO: 11) (AQARRKNYGQLDIFP) [reference compound]
[1]; versus control tumors
  MUC1 expression in tumor sections (antibody staining): marked down-regulation of MUC1 expression
ZR-75-1 cells
  necrosis (propidium iodide): not

## O=c1cc(-c2ccc(O)cc2)oc2cc(O)cc(O)c12 [Apigenin, 4′,5,7-trihydroxyflavone]
MUC1
  MUC1 mRNA levels: downregulation of MUC1 mRNA levels
  MUC1-C protein in the nucleus: decreased expression of the MUC1-C protein
  MUC1-C protein in whole cell lysates: decreased expression of the MUC1-C protein

## CC[C@H](C)[C@H](NC(=O)[C@H](CC(=O)O)NC(=O)[C@H](CC(C)C)NC(=O)[C@H](CCC(N)=O)NC(=O)CNC(=O)[C@H](Cc1ccc(O)cc1)NC(=O)[C@H](CC(N)=O)NC(=O)[C@H](CCCCN)NC(=O)[C@H](CCCNC(=N)N)NC(=O)[C@H](CCCNC(=N)N)NC(=O)[C@H](CS)NC(=O)[C@H](CCC(N)=O)NC(=O)[C@H](CS)NC(=O)[C@@H](CCCNC(=N)N)NC(=O)[C@@H](CCCNC(=N)N)NC(=O)[C@@H](CCCNC(=N)N)NC(=O)[C@@H](CCCNC(=N)N)NC(=O)[C@@H](CCCNC(=N)N)NC(=O)[C@@H](CCCNC(=N)N)NC(=O)[C@@H](CCCNC(=N)N)NC(=O)[C@@H](CCCNC(=N)N)NC(=O)[C@H](N)CCCNC(=N)N)C(=O)N[C@@H](Cc1ccccc1)C(=O)N1CCC[C@H]1C(=O)O [MUC1/CQC]
[1]; 10 mg/kg/d × 21 d IP, versus MUC1/AQA 50 mg/kg/d
  tumor growth: slowed growth
[1]; 50 mg/kg/d IP, initial 7 d of treatment
  tumor growth: blocked growth
[1]; 50 mg/kg/d group, next 17 d
  tumor regrowth after treatment stopped: no detectable growth
[1]; 10 and 50 mg/kg, versus vehicle or MUC1/AQA
  tumor histopathology (H&E): markedly necrotic
ZR-75-1 cells
  sub-G1 DNA content (apoptosis): little if any accumulation of cells with sub-G1 DNA content
  necrosis (propidium iodide): induction of necrosis
ZR-75-1 cells; 72 h
  cell cycle distribution: substantial arrest in S phase
ZR-75-1 cells; 96 h
  cell cycle distribution: S phase population was decreased
